This note sets out measurements from patent US6833456B2, “Indolyl-urea derivatives of thienopyridines useful as antiangiogenic agents, and methods for their use” (Agouron Pharmaceuticals, Inc., priority 2002, dated 2004).

As a reminder, the AUC is the area under the concentration-time curve, a measure of exposure. Read a high AUC as high exposure. In general, IC50 refers to the concentration that gives 50% inhibition.

The nature of one data set: Mouse PK assay. To be noted: po; for AUC / Cmax: female, B6, mouse, plasma, 50 mg/kg; for Cmax: p.o., read-out: Mouse Cmax, po ng-h/mL. The data set is classed as in vivo, B6 female mice. A digest of the protocol:
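Plasma levels were measured by HPLC with UV detection after acetonitrile precipitation, using extracted standards, in blood taken up to 4 h (0.5, 1, 2, 4 h) post-dose. Dosing: 50 mg/kg orally or intraperitoneally to two groups of four female B6 mice, vehicle PEG 400:acidified H2O 30:70 suspension.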

A further data set concerns the target T1, PDGFRβ (Homo sapiens, UniProt P09619).
T1 construct: expressed in transfected cells; host or cells: porcine aorta endothelial (PAE) cells
Nature of the data set: PAE-PDGFRβ phosphorylation in PAE-PDGFRB cells assay. The data set is classed as cell-based. To be noted: PAE cells overexpressing human PDGFRβ, PDGF-BB stimulated; read-out: PAE PDGFR autophos IC50. A digest of the protocol:
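PAE cells overexpressing human PDGFRβ, serum-starved 16 h (0.1% FBS), compound 1 h at 37° C (0.5% DMSO), then 1 μg/mL PDGF-BB with 2 mM Na3VO4 for 8 min. Receptor captured by anti-PDGFRβ, phosphotyrosine detected by HRP-PY20/TMB at 450 nm; IC50 by four-parameter fit.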

A further data set has as its system HUVEC. Nature of the data set: bFGF HUVEC proliferation. The class given is cell-based, human. To be noted: Homo sapiens, HUVEC, bFGF stimulated HUVEC.
The target of the next data set is T2, KDR (VEGFR2) (Homo sapiens, UniProt P35968).
T2 construct: expressed in transfected cells; host or cells: porcine aorta endothelial (PAE) cells
Nature of the data set: KDR (VEGFR2) phosphorylation in PAE-KDR cells assay. The class given is cell-based. The note with it: PAE cells overexpressing human KDR, VEGF stimulated; read-out: PAE KDR autophos IC50. Summed up: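 PAE cells overexpressing human KDR, serum-starved 16 h (0.1% FBS), treated with compound 1 h at 37° C (0.5% DMSO), then stimulated 8 min with 500 ng/ml VEGF plus 2 mM Na3VO4. Lysate KDR phosphotyrosine measured by capture ELISA (anti-pY HRP, 450 nm); IC50 by four-parameter fit.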

“And” between values parts separate entries of the source, which are not always exact repeats. Equal entries are not always repeated. Bounds are passed on as bounds.

T2 sequence (P35968 20-1356): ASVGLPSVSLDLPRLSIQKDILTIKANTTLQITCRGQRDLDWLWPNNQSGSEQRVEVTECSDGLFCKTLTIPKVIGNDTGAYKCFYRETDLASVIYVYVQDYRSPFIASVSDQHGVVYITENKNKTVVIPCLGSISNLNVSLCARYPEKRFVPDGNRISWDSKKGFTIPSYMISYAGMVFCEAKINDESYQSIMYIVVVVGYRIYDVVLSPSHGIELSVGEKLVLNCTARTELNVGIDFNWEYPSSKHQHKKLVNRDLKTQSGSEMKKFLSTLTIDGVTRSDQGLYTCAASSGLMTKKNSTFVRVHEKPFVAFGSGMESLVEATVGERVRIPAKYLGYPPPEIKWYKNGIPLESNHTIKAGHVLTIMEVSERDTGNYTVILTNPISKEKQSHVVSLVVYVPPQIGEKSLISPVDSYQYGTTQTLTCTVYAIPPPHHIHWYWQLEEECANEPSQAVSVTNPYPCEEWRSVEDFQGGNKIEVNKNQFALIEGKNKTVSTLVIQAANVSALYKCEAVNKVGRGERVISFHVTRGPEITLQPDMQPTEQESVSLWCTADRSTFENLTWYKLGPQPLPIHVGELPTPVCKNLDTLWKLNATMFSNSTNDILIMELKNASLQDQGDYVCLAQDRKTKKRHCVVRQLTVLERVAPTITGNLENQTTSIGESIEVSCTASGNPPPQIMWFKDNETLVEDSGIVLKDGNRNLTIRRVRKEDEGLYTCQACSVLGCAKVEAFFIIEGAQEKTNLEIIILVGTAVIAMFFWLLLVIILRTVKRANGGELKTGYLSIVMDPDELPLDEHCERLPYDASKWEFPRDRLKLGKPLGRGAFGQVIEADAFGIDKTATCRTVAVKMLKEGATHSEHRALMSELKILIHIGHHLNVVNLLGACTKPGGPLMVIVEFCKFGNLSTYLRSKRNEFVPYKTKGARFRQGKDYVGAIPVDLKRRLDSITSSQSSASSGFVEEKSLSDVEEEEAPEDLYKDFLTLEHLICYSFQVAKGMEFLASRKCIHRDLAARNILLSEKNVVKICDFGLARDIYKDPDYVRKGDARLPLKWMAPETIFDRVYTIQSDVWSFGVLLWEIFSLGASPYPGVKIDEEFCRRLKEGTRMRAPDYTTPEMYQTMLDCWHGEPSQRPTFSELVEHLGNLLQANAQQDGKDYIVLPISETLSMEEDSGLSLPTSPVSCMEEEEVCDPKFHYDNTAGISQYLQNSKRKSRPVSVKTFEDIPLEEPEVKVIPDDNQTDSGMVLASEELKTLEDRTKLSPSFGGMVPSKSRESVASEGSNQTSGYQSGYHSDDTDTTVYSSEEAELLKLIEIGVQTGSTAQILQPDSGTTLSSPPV
T1 sequence (P09619 33-1106): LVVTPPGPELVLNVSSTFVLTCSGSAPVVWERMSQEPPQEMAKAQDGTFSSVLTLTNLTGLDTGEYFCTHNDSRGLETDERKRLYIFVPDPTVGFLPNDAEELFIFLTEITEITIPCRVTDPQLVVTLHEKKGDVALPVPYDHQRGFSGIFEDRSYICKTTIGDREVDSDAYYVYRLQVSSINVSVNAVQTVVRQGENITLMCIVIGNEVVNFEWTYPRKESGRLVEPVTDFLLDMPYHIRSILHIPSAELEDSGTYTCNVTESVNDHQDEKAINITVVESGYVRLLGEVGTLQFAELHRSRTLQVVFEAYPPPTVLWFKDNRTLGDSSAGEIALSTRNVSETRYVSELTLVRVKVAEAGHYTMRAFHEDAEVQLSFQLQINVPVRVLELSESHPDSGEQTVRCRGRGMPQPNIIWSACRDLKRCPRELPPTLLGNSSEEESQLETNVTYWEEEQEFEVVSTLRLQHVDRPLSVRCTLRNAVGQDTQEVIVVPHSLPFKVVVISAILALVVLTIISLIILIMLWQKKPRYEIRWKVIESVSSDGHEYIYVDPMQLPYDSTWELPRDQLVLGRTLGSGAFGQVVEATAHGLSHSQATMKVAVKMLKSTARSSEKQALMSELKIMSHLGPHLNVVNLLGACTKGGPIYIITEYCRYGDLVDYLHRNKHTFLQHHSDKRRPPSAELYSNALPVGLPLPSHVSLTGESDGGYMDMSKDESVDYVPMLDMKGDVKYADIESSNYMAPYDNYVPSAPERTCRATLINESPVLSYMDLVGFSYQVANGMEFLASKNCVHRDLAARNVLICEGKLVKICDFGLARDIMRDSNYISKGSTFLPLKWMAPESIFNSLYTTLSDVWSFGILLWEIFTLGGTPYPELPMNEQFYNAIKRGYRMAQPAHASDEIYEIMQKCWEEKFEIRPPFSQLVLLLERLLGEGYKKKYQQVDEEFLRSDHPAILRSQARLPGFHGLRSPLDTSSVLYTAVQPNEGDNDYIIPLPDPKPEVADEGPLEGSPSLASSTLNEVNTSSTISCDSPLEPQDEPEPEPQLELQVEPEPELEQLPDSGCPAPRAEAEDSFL

On to `Cc1cc2cc(Nc3ccnc4cc(C(=O)N5CCC[C@@H]5CO)sc34)ccc2n1C(=O)NC1CC1` [Example 1c, 5-[2-(2R-Hydroxymethyl-pyrrolidine-1-carbonyl)-thieno[3,2-b]pyridin-7-ylamino]-2-methyl-indole-1-carboxylic acid cyclopropylamide], for which, in the data set “Mouse PK assay”, the area under the curve (AUC) amounted to 616 ng·h/mL; the Cmax was determined as 317 ng/mL; the “Mouse Cmin, po” value is 7 ng/mL. The half-inhibitory concentration (IC50) on PDGFRβ is > 100 nM and 179 nM. Also, half-maximal inhibition in the data set on HUVEC (IC50) was put at 158 nM.
Consider `CNC(=O)n1c(C)cc2cc(Nc3ccnc4cc(C(=O)N5CCC[C@H]5COC)sc34)ccc21` [Example 1t, 5-(2-[(S)-2-(methoxymethyl)pyrrolidine-1-carbonyl]thieno[3,2-b]pyridin-7-ylamino)-2-methylindole-1-carboxylic acid methylamide], for which the half-maximal inhibitory concentration (IC50) on KDR (VEGFR2) is 0.67 nM and 0.35 nM and 0.41 nM. Further, in the data set “Mouse PK assay”, the AUC stood at 5860 ng·h/mL; the Cmax turned out to be 4650 ng/mL; the “Mouse Cmin, po” value was 4 ng/mL. In addition, the IC50 at PDGFRβ is 116 nM and > 100 nM and 97 nM.
In the case of `CNC(=O)n1c(C)cc2cc(Nc3ccnc4cc(-c5nccn5C)sc34)ccc21` [Example 2a, 5-(2-[1-methyl-1H-imidazol-2-yl]thieno[3,2-b]pyridin-7-ylamino)-2-methylindole-1-carboxylic acid methylamide], the IC50 at KDR (VEGFR2) was 0.36 nM and 0.28 nM and 0.32 nM. Also, in the data set “Mouse PK assay”, the area under the curve (AUC) turned out to be 1170 ng·h/mL; the Cmax amounted to 1010 ng/mL; the “Mouse Cmin, po” value came out at 19 ng/mL. The IC50 at PDGFRβ was 57 nM and 96 nM and 61 nM and 41 nM.
Regarding `CNC(=O)n1c(C)cc2cc(Nc3ccnc4cc(C(=O)N5CCC[C@H]5CO)sc34)ccc21` [Example 2b, 5-(2-[(S)-2-(hydroxymethyl)pyrrolidine-1-carbonyl]thieno[3,2-b]pyridin-7-ylamino)-2-methylindole-1-carboxylic acid methylamide], the half-inhibitory concentration (IC50) at KDR (VEGFR2) was 1.42 nM and 1.43 nM and 1.27 nM. Moreover, in “Mouse PK assay”, the AUC was 2800 ng·h/mL; the Cmax was 1900 ng/mL; the “Mouse Cmin, po” value is recorded as 10 ng/mL. Also, the 50% inhibitory concentration (IC50) at PDGFRβ is 856 nM and > 100 nM and 616 nM and 556 nM and 657 nM and 682 nM.
Regarding `CNC(=O)n1c(C)cc2cc(Nc3ccnc4cc(-c5nc(C(C)(C)O)cs5)sc34)ccc21` [Example 3a, 5-{2-[4-(1-Hydroxy-1-methyl-ethyl)-thiazol-2-yl]-thieno[3,2-b]pyridin-7-ylamino}-2-methyl-indole-1-carboxylic acid methylamide], the half-inhibitory concentration (IC50) on KDR (VEGFR2) was 0.72 nM and 0.33 nM and 0.35 nM. In the data set “Mouse PK assay”, the exposure (AUC) was 10300 ng·h/mL; the Cmax turned out to be 3950 ng/mL; the “Mouse Cmin, po” value stood at 408 ng/mL. The IC50 on PDGFRβ was 84 nM and 99 nM.
For the compound `Cc1cc2cc(Nc3ccnc4cc(-c5nc(C(C)(C)O)cs5)sc34)ccc2n1C(=O)NC1CC1` [Example 3b, 5-{2-[4-(1-Hydroxy-1-methyl-ethyl)-thiazol-2-yl]-thieno[3,2-b]pyridin-7-ylamino}-2-methyl-indole-1-carboxylic acid cyclopropylamide], the IC50 at KDR (VEGFR2) is 0.32 nM and 0.444 nM. Besides, in “Mouse PK assay”, the AUC came out at 18800 ng·h/mL; the Cmax turned out to be 11100 ng/mL; the “Mouse Cmin, po” value is 252 ng/mL. The concentration for half-maximal inhibition (IC50) at PDGFRβ is 142 nM and 125 nM.
Turning to `C#CCNC(=O)n1c(C)cc2cc(Oc3ccnc4cc(C(=O)N5CCC[C@H]5COC)sc34)ccc21` [Example 4c, 5-(2-[(S)-2-(methoxymethyl)pyrrolidine-1-carbonyl]thieno[3,2-b]pyridin-7-yloxy)-2-methylindole-1-carboxylic acid prop-2-ynylamide], on KDR (VEGFR2), the IC50 was 0.28 nM and 0.24 nM and 0.36 nM. In the data set “Mouse PK assay”, the exposure (AUC) was determined as 8310 ng·h/mL; the Cmax amounted to 2760 ng/mL; the “Mouse Cmin, po” value was determined as 313 ng/mL. In addition, on PDGFRβ, the 50% inhibitory concentration (IC50) was 16 nM and 18 nM and 15 nM.
On to `COC[C@@H]1CCCN1C(=O)c1cc2nccc(Oc3ccc4c(c3)cc(C)n4C(=O)NCC#CCO)c2s1` [Example 4d, 5-(2-[(S)-2-(methoxymethyl)pyrrolidine-1-carbonyl]thieno[3,2-b]pyridin-7-yloxy)-2-methylindole-1-carboxylic acid (4-hydroxybut-2-ynyl)amide], for which the 50% inhibitory concentration (IC50) at KDR (VEGFR2) was 0.37 nM and 0.26 nM and 0.55 nM. In the data set “Mouse PK assay”, the AUC turned out to be 4060 ng·h/mL; the Cmax turned out to be 1960 ng/mL; the “Mouse Cmin, po” value was found to be 54 ng/mL. Besides, the 50% inhibitory concentration (IC50) on PDGFRβ was 76 nM and 71 nM and 64 nM.
Take `C#CCNC(=O)n1c(C)cc2cc(Oc3ccnc4cc(C(=O)N5CC[C@H](OC)C5)sc34)ccc21` [Example 4f, 5-[2-(3S-Methoxy-pyrrolidine-1-carbonyl)-thieno[3,2-b]pyridin-7-yloxy]-2-methyl-indole-1-carboxylic acid prop-2-ynylamide]: the IC50 on KDR (VEGFR2) was determined as 0.149 nM. Further, in the data set “Mouse PK assay”, the AUC worked out at 15600 ng·h/mL; the Cmax is 8840 ng/mL; the “Mouse Cmin, po” value was determined as 112 ng/mL. At PDGFRβ, the IC50 is 14 nM.
As to `CNC(=O)n1c(C)cc2cc(Oc3ccnc4cc(C(=O)N5CC[C@H](OC)C5)sc34)ccc21` [Example 4g, 5-[2-(3S-Methoxy-pyrrolidine-1-carbonyl)-thieno[3,2-b]pyridin-7-yloxy]-2-methyl-indole-1-carboxylic acid methylamide], the IC50 on KDR (VEGFR2) was 0.58 nM and 0.98 nM. For the same compound, in “Mouse PK assay”, the exposure (AUC) came to 3620 ng·h/mL; the Cmax is 2280 ng/mL; the “Mouse Cmin, po” value is listed as 20 ng/mL. In addition, at PDGFRβ, the half-inhibitory concentration (IC50) turned out to be 10.5 nM.
With `CO[C@H]1CCN(C(=O)c2cc3nccc(Oc4ccc5c(c4)cc(C)n5C(=O)NC4CC4)c3s2)C1` [Example 4h, 5-[2-(3S-Methoxy-pyrrolidine-1-carbonyl)-thieno[3,2-b]pyridin-7-yloxy]-2-methyl-indole-1-carboxylic acid cyclopropylamide], the half-inhibitory concentration (IC50) on KDR (VEGFR2) was 0.116 nM and 0.34 nM and 0.21 nM. Moreover, in the data set “Mouse PK assay”, the AUC worked out at 2600 ng·h/mL; the Cmax amounted to 657 ng/mL; the “Mouse Cmin, po” value was 161 ng/mL. Further, the IC50 at PDGFRβ stood at 19 nM.
Regarding `C#CCNC(=O)n1c(C)cc2cc(Oc3ccnc4cc(C(=O)N5CC[C@@H](OC)C5)sc34)ccc21` [Example 4l, 5-[2-(3R-Methoxy-pyrrolidine-1-carbonyl)-thieno[3,2-b]pyridin-7-yloxy]-2-methyl-indole-1-carboxylic acid prop-2-ynylamide], on KDR (VEGFR2), the IC50 stood at 0.09 nM. For the same compound, in “Mouse PK assay”, the AUC was found to be 321000 ng·h/mL; the Cmax was found to be 11300 ng/mL; the “Mouse Cmin, po” value was found to be 9020 ng/mL. On PDGFRβ, the IC50 came out at 15 nM.
For `CNC(=O)n1c(C)cc2cc(Oc3ccnc4cc(C(=O)N5CC[C@@H](O)C5)sc34)ccc21` [Example 4n, 5-[2-(3R-Hydroxy-pyrrolidine-1-carbonyl)-thieno[3,2-b]pyridin-7-yloxy]-2-methyl-indole-1-carboxylic acid methylamide], at KDR (VEGFR2), the IC50 was 0.35 nM and 0.16 nM and 0.167 nM. In the data set “Mouse PK assay”, the AUC is 1850 ng·h/mL; the Cmax is 1110 ng/mL; the “Mouse Cmin, po” value was 45 ng/mL. For the same compound, at PDGFRβ, the IC50 came out at 5.8 nM.
For `Cc1cc2cc(Oc3ccnc4cc(C(=O)N5CC[C@@H](O)C5)sc34)ccc2n1C(=O)NC1CC1` [Example 4p, 5-[2-(3R-Hydroxy-pyrrolidine-1-carbonyl)-thieno[3,2-b]pyridin-7-yloxy]-2-methyl-indole-1-carboxylic acid cyclopropylamide], the IC50 at KDR (VEGFR2) is 0.22 nM. Besides, in “Mouse PK assay”, the area under the curve (AUC) amounted to 4630 ng·h/mL; the Cmax came out at 2710 ng/mL; the “Mouse Cmin, po” value came out at 68 ng/mL. Further, the concentration for half-maximal inhibition (IC50) on PDGFRβ is 4 nM.
In the case of `C#CCNC(=O)n1c(C)cc2c(F)c(Oc3ccnc4cc(C(=O)N5CCC[C@H]5CO)sc34)ccc21` [Example 5e, 4-Fluoro-5-[2-(2S-hydroxymethyl-pyrrolidine-1-carbonyl)-thieno[3,2-b]pyridin-7-yloxy]-2-methyl-indole-1-carboxylic acid prop-2-ynylamide], the 50% inhibitory concentration (IC50) at KDR (VEGFR2) is 0.256 nM and 0.52 nM and 0.237 nM. Besides, in “Mouse PK assay”, the exposure (AUC) came out at 1960 ng·h/mL; the Cmax stood at 1100 ng/mL; the “Mouse Cmin, po” value amounted to 19 ng/mL. For the same compound, at PDGFRβ, the IC50 worked out at 14.1 nM.
Turning to `C#CCNC(=O)n1c(C)c(Cl)c2c(F)c(Oc3ccnc4cc(C(=O)N5CC[C@H](O)C5)sc34)ccc21` [Example 6d, 3-Chloro-4-fluoro-5-[2-(3S-hydroxy-pyrrolidine-1-carbonyl)-thieno[3,2-b]pyridin-7-yloxy]-2-methyl-indole-1-carboxylic acid prop-2-ynylamide], the half-maximal inhibitory concentration (IC50) on KDR (VEGFR2) was 0.123 nM and 0.31 nM. For the same compound, in the data set “Mouse PK assay”, the area under the curve (AUC) turned out to be 1630 ng·h/mL; the Cmax is 302 ng/mL; the “Mouse Cmin, po” value stood at 125 ng/mL. For the same compound, on PDGFRβ, the half-inhibitory concentration (IC50) amounted to 29.1 nM.
Consider `Cc1cc2cc(Oc3ccnc4cc(C(=O)N5CC[C@H](O)C5)sc34)ccc2n1C(=O)NCCO` [Example 9k, 5-[2-(3S-Hydroxy-pyrrolidine-1-carbonyl)-thieno[3,2-b]pyridin-7-yloxy]-2-methyl-indole-1-carboxylic acid (2-hydroxy-ethyl)-amide], for which, on KDR (VEGFR2), the IC50 came to 1 nM. In addition, in “Mouse PK assay”, the exposure (AUC) turned out to be 1100 ng·h/mL; the Cmax was determined as 371 ng/mL; the “Mouse Cmin, po” value amounted to 43 ng/mL. Also, the IC50 at PDGFRβ turned out to be 274 nM.
